Results reported in US12584905B2, “Method for identifying molecular markers of children's skin” (LABORATOIRES EXPANSCIENCE, priority 2012, dated 2026).

Assays:
Assay type in all cases: cell-based, human
[1] = test system: reconstructed epidermises from donors of 1 month of age; assay: Cell viability (MTT test) of reconstructed epidermises after product application; conditions: reconstructed epidermis from 1-month-old donors, applied for 16 hours
Procedure: (§1) Reconstructed skin models were generated using these samples. Reconstructed epidermises were thus produced with the various donors selected using the technique by Poumay et al. (Arch Dermatol Res, 296(5): 203-211, 2004). After two days of submerged culture, the reconstructed epidermises were cultured at the air/liquid interface for 5 or 9 days. For the duration of the culture, the medium was replenished every 2 to 3 days.
(§2) Epidermises were reconstructed as specified in example 1 with keratinocytes from donors of 1 month of age. The products, a cleansing cream and a moisturising lotion both containing avocado perseose, were applied on these reconstructed epidermises for 16 hours. A control was produced by applying 0.4% SDS on control reconstructed epidermis samples.
(§3) IL-8 protein was assayed in the culture supernatant using an Elisa test. The cell viability was evaluated using the MTT test. Finally, a histological analysis was conducted on tissues included in paraffin by means of haematoxylin and eosin staining.

[2] = test system: reconstructed epidermises from donors of 1 month of age; assay: Histological analysis (haematoxylin and eosin) of thickness of live cell layers of treated reconstructed epidermises; conditions: histology, reconstructed epidermis from 1-month-old donors, applied for 16 hours, control = 100%, SDS at 0.4%
Procedure: as §1, §2, §3

[3] = test system: IL-8 protein; assay: IL-8 protein assay in culture supernatant (Elisa test) of treated reconstructed epidermises; conditions: reconstructed epidermis from 1-month-old donors, applied for 16 hours
Procedure: as §1, §2, §3

CCCCCCCCCCCCOS(=O)(=O)[O-].[Na+] [SDS]
Viability ([1]; MTT test, control = 100%, SDS at 0.4%): 2% | Effect on cell viability (in words) [1]: very significantly reduced | Thickness of live layers [2]: 58% | IL8 inflammatory molecule ([3]; Elisa in culture supernatant, control = 100%, SDS at 0.4%): 602% | Effect on IL-8 expression (in words) [3]: significant increase
